Tests used:
[1] = Selectivity index, ratio of Ki for bovine eNOS to KI for rat nNOS
[2] = Selectivity index, ratio of Ki for mouse macrophage iNOS to KI for rat nNOS

| Ratio Ki [1] | Ratio Ki [2] | SMILES |
| --- | --- | --- |
| 142 | 163 | N=C(Nc1ccc(OC[C@@H]2C[C@@H](Oc3cccc(NC(=N)c4cccs4)c3)CN2)cc1)c1cccs1 |
| 86 | 90 | N=C(Nc1cccc(O[C@H]2CN[C@H](COCc3cccc(F)c3)C2)c1)c1cccs1 |
| 18 | 92 | N=C(Nc1cccc(OC[C@@H]2C[C@@H](OCc3cccc(F)c3)CN2)c1)c1cccs1 |

Reference: ChEMBL document CHEMBL3351383, “Combination of chiral linkers with thiophenecarboximidamide heads to improve the selectivity of inhibitors of neuronal nitric oxide synthase” (Bioorg Med Chem Lett, 2014)
